Test results: BindingDB's records for doi:10.1016/j.bmcl.2010.06.021 (Shujitsu University, 2010)

Each compound was assayed against Beta-secretase 1 (Homo sapiens, UniProt P56817) (assay: Inhibition of BACE1 after 60 mins by FRET assay).
Sequence of Beta-secretase 1 (P56817 whole entry): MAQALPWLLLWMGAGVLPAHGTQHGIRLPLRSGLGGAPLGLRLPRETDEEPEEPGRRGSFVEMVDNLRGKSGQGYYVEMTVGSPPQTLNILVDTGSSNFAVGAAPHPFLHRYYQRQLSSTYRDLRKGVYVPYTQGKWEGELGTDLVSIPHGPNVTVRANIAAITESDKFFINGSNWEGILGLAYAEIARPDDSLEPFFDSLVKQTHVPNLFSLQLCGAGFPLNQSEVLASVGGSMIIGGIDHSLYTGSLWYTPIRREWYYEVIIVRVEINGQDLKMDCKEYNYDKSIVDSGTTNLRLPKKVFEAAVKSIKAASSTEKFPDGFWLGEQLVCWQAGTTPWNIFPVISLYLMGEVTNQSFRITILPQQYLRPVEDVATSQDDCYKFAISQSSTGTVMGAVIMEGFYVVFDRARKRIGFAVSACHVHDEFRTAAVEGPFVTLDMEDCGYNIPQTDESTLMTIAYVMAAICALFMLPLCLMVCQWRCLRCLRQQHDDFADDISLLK

IC50, > 10 µM:
O=c1cc(O)cc2oc(-c3ccc(O)c(-c4c(O)cc5oc(-c6ccc(O)cc6)cc(=O)c5c4O)c3)cc(O)c1-2, O=c1cc(O)cc2oc(-c3ccc(Oc4c(O)cc5oc(-c6ccc(O)cc6)cc(=O)c5c4O)cc3)cc(O)c1-2, COc1ccc(-c2cc(O)c3c(=O)cc(O)cc-3o2)cc1-c1c(OC)cc(O)c2c(=O)cc(-c3ccc(O)cc3)oc12 [4',7''-di-O-methyl-amentoflavone], COc1ccc(-c2cc(=O)c3c(O)cc(OC)c(-c4cc(-c5cc(O)c6c(=O)cc(O)cc-6o5)ccc4O)c3o2)cc1 [7'',4'''-dimethylamentoflavone], COc1ccc(-c2cc(=O)c3c(O)cc(OC)c(-c4cc(-c5cc(O)c6c(=O)cc(OC)cc-6o5)ccc4OC)c3o2)cc1 [7,4',7'',4'''-O-methyl-amentoflavone], COc1cc2oc(-c3ccc(OC)c(-c4c(OC)cc(O)c5c(=O)cc(-c6ccc(O)cc6)oc45)c3)cc(O)c-2c(=O)c1 [7-O-methyl-isoginkgetin], COc1ccc(-c2cc(=O)c3c(O)cc(OC)c(-c4cc(-c5cc(O)c6c(=O)cc(OC)cc-6o5)ccc4O)c3o2)cc1 [heveaflavone], COc1ccc(-c2cc(=O)c3c(O)cc(OC)c(-c4cc(-c5cc(O)c6c(=O)cc(O)cc-6o5)ccc4OC)c3o2)cc1 [kayaflavone], COc1ccc(-c2cc(=O)c3c(O)cc(O)c(-c4cc(-c5cc(O)c6c(=O)cc(OC)cc-6o5)ccc4OC)c3o2)cc1 [sciadopitisin]
